Experimental data reported in the supplement of paper PMC9663587.

Columns and labels:
BSJ-03-123 = compound: CC(=O)c1c(C)c2cnc(Nc3ccc(N4CCN(CCOCCOCCOCCNC(=O)COc5cccc6c5C(=O)N(C5CCC(=O)NC5=O)C6=O)CC4)cn3)nc2n(C2CCCC2)c1=O [BSJ-03-123]; assay: increase in dead-cell fraction, 72 h; higher = more death;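 note: breast cancer cell lines in 384-well plates, stained with Hoechst plus LIVE/DEAD far red dye and imaged, cells above an LDR intensity threshold counted dead, Hoechst-negative corpses included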
[1] = compound: CC(=O)c1c(C)c2cnc(Nc3ccc(N4CCNCC4)cn3)nc2n(C2CCCC2)c1=O; assay: as above
[2] = compound: CCN1CCN(Cc2ccc(Nc3ncc(F)c(-c4cc(F)c5nc(C)n(C(C)C)c5c4)n3)nc2)CC1; assay: as above
Neratinib/HKI272 = compound: CCOc1cc2ncc(C#N)c(Nc3ccc(OCc4ccccn4)c(Cl)c3)c2cc1NC(=O)/C=C/CN(C)C [Neratinib/HKI272]; assay: as above
[3] = compound: CCc1cnn2c(NCc3ccc[n+]([O-])c3)cc(N3CCCC[C@H]3CCO)nc12; assay: as above
LEE011/Ribociclib = compound: CN(C)C(=O)c1cc2cnc(Nc3ccc(N4CCNCC4)cn3)nc2n1C1CCCC1 [LEE011/Ribociclib]; assay: as above
THZ1 [4] = compound: T1, CN(C)C/C=C/C(=O)Nc1ccc(C(=O)Nc2cccc(Nc3ncc(Cl)c(-c4c[nH]c5ccccc45)n3)c2)cc1 [THZ1]; assay: as above
Flavopiridol [5] = compound: T2, CN1CC[C@H](c2c(O)cc(O)c3c(=O)cc(-c4ccccc4Cl)oc23)[C@H](O)C1 [Flavopiridol]; assay: as above
[6] = compound: CC(=O)c1c(C)c2cnc(Nc3ccc(N4CCNCC4)cn3)nc2n(C2CCCC2)c1=O; assay: GR value, 72 h; higher = faster growth (1 = untreated, <0 = killing);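 note: breast cancer and non-malignant breast epithelial lines, nine half-log doses, viable cells counted by Hoechst and LIVE/DEAD dye imaging versus time-zero plates and DMSO controls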
THZ531 = compound: CN(C)C/C=C/C(=O)Nc1ccc(C(=O)N2CCC[C@@H](Nc3ncc(Cl)c(-c4c[nH]c5ccccc45)n3)C2)cc1 [THZ531]; assay: as above
THZ1 [7] = compound: T1, THZ1; assay: as above
Flavopiridol [8] = compound: T2, Flavopiridol; assay: as above

Cell Line: CAL51
- increase in dead-cell fraction (BSJ-03-123; 0.001 µM): -0.0039
- increase in dead-cell fraction (BSJ-03-123; 0.003162 µM): -0.0056
- increase in dead-cell fraction (BSJ-03-123; 0.01 µM): -0.004
- increase in dead-cell fraction (BSJ-03-123; 0.03162 µM): -0.0021
- increase in dead-cell fraction (BSJ-03-123; 0.1 µM): -0.0017
- increase in dead-cell fraction (BSJ-03-123; 0.3162 µM): -0.0037
- increase in dead-cell fraction (BSJ-03-123; 1 µM): 0.0033
- increase in dead-cell fraction (BSJ-03-123; 3.162 µM): 0.0021
- increase in dead-cell fraction (BSJ-03-123; 10 µM): 0.128
- increase in dead-cell fraction ([1]; 0.0003162 µM): -0.0042
- increase in dead-cell fraction ([1]; 0.001 µM): -0.0013
- increase in dead-cell fraction ([1]; 0.003162 µM): -0.0116
- increase in dead-cell fraction ([1]; 0.01 µM): -0.0114
- increase in dead-cell fraction ([1]; 0.03162 µM): -0.0305
- increase in dead-cell fraction ([1]; 0.1 µM): -0.0374
- increase in dead-cell fraction ([1]; 0.3162 µM): -0.0371
- increase in dead-cell fraction ([1]; 1 µM): -0.036
- increase in dead-cell fraction ([1]; 3.162 µM): -0.029
- increase in dead-cell fraction ([2]; 0.001 µM): -0.009
- increase in dead-cell fraction ([2]; 0.003162 µM): -0.0216
- increase in dead-cell fraction ([2]; 0.01 µM): -0.032
- increase in dead-cell fraction ([2]; 0.03162 µM): -0.0343
- increase in dead-cell fraction ([2]; 0.1 µM): -0.0329
- increase in dead-cell fraction ([2]; 0.3162 µM): -0.0295
- increase in dead-cell fraction ([2]; 1 µM): -0.0018
- increase in dead-cell fraction ([2]; 3.162 µM): 0.239
- increase in dead-cell fraction ([2]; 10 µM): 0.727
- increase in dead-cell fraction (Neratinib/HKI272; 0.0003162 µM): 0.0033
- increase in dead-cell fraction (Neratinib/HKI272; 0.001 µM): -0.0017
- increase in dead-cell fraction (Neratinib/HKI272; 0.003162 µM): 0.0074
- increase in dead-cell fraction (Neratinib/HKI272; 0.01 µM): 0.0041
- increase in dead-cell fraction (Neratinib/HKI272; 0.03162 µM): 0.0026
- increase in dead-cell fraction (Neratinib/HKI272; 0.1 µM): 0.0003
- increase in dead-cell fraction (Neratinib/HKI272; 0.3162 µM): -0.0046
- increase in dead-cell fraction (Neratinib/HKI272; 1 µM): -0.0094
- increase in dead-cell fraction (Neratinib/HKI272; 3.162 µM): 0.0911
- increase in dead-cell fraction ([3]; 0.0001 µM): -0.0015
- increase in dead-cell fraction ([3]; 0.0003162 µM): -0.0015
- increase in dead-cell fraction ([3]; 0.001 µM): 0.0029
- increase in dead-cell fraction ([3]; 0.003162 µM): 0.0026
- increase in dead-cell fraction ([3]; 0.01 µM): -0.0001
- increase in dead-cell fraction ([3]; 0.03162 µM): 0.437
- increase in dead-cell fraction ([3]; 0.1 µM): 0.584
- increase in dead-cell fraction ([3]; 0.3162 µM): 0.58
- increase in dead-cell fraction ([3]; 1 µM): 0.532
- increase in dead-cell fraction (LEE011/Ribociclib; 0.001 µM): -0.0032
- increase in dead-cell fraction (LEE011/Ribociclib; 0.003162 µM): -0.0038
- increase in dead-cell fraction (LEE011/Ribociclib; 0.01 µM): -0.0003
- increase in dead-cell fraction (LEE011/Ribociclib; 0.03162 µM): 0.0052
- increase in dead-cell fraction (LEE011/Ribociclib; 0.1 µM): 0.0083
- increase in dead-cell fraction (LEE011/Ribociclib; 0.3162 µM): 0.0065
- increase in dead-cell fraction (LEE011/Ribociclib; 1 µM): 0.0053
- increase in dead-cell fraction (LEE011/Ribociclib; 3.162 µM): 0.0086
- increase in dead-cell fraction (LEE011/Ribociclib; 10 µM): 0.0229
- increase in dead-cell fraction (THZ1 [4]; 0.0001 µM): -0.0022
- increase in dead-cell fraction (THZ1 [4]; 0.0003162 µM): -0.0006
- increase in dead-cell fraction (THZ1 [4]; 0.001 µM): -0.0009
- increase in dead-cell fraction (THZ1 [4]; 0.003162 µM): 0.0009
- increase in dead-cell fraction (THZ1 [4]; 0.01 µM): 0.0002
- increase in dead-cell fraction (THZ1 [4]; 0.03162 µM): 0.0038
- increase in dead-cell fraction (THZ1 [4]; 0.1 µM): 0.0149
- increase in dead-cell fraction (THZ1 [4]; 0.3162 µM): 0.046
- increase in dead-cell fraction (THZ1 [4]; 1 µM): 0.117
- increase in dead-cell fraction (Flavopiridol [5]; 0.0001 µM): -0.0023
- increase in dead-cell fraction (Flavopiridol [5]; 0.0003162 µM): 0.0009
- increase in dead-cell fraction (Flavopiridol [5]; 0.001 µM): -0.0005
- increase in dead-cell fraction (Flavopiridol [5]; 0.003162 µM): 0.004
- increase in dead-cell fraction (Flavopiridol [5]; 0.01 µM): 0.0023
- increase in dead-cell fraction (Flavopiridol [5]; 0.03162 µM): 0.006
- increase in dead-cell fraction (Flavopiridol [5]; 0.1 µM): 0.011
- increase in dead-cell fraction (Flavopiridol [5]; 0.3162 µM): 0.068
- increase in dead-cell fraction (Flavopiridol [5]; 1 µM): 0.234
- GR value ([6]; 0.0003162 µM): 0.968 GR
- GR value ([6]; 0.001 µM): 1.02 GR
- GR value ([6]; 0.003162 µM): 0.982 GR
- GR value ([6]; 0.01 µM): 0.911 GR
- GR value ([6]; 0.03162 µM): 0.783 GR
- GR value ([6]; 0.1 µM): 0.646 GR
- GR value ([6]; 0.3162 µM): 0.516 GR
- GR value ([6]; 1 µM): 0.446 GR
- GR value ([6]; 3.162 µM): 0.354 GR
- GR value (THZ531; 0.0001 µM): 0.973 GR
- GR value (THZ531; 0.0003162 µM): 0.962 GR
- GR value (THZ531; 0.001 µM): 0.912 GR
- GR value (THZ531; 0.003162 µM): 0.96 GR
- GR value (THZ531; 0.01 µM): 1.01 GR
- GR value (THZ531; 0.03162 µM): 0.937 GR
- GR value (THZ531; 0.1 µM): 0.904 GR
- GR value (THZ531; 0.3162 µM): 0.786 GR
- GR value (THZ531; 1 µM): 0.543 GR
- GR value (THZ1 [7]; 0.0001 µM): 1.05 GR
- GR value (THZ1 [7]; 0.0003162 µM): 0.971 GR
- GR value (THZ1 [7]; 0.001 µM): 0.953 GR
- GR value (THZ1 [7]; 0.003162 µM): 0.953 GR
- GR value (THZ1 [7]; 0.01 µM): 0.938 GR
- GR value (THZ1 [7]; 0.03162 µM): 0.882 GR
- GR value (THZ1 [7]; 0.1 µM): 0.871 GR
- GR value (THZ1 [7]; 0.3162 µM): 0.601 GR
- GR value (THZ1 [7]; 1 µM): 0.0924 GR
- GR value (Flavopiridol [8]; 0.0001 µM): 0.98 GR
- GR value (Flavopiridol [8]; 0.0003162 µM): 0.944 GR
- GR value (Flavopiridol [8]; 0.001 µM): 0.962 GR
- GR value (Flavopiridol [8]; 0.003162 µM): 0.909 GR
- GR value (Flavopiridol [8]; 0.01 µM): 0.842 GR
- GR value (Flavopiridol [8]; 0.03162 µM): 0.887 GR
- GR value (Flavopiridol [8]; 0.1 µM): 0.708 GR
- GR value (Flavopiridol [8]; 0.3162 µM): 0.353 GR
- GR value (Flavopiridol [8]; 1 µM): -0.099 GR
